Values belong to the molecule of their own block, whether it stands above or below them.
Experiments:
Assay in all cases: spectrophotometric oxidation, […] nm
Assay type in all cases: biochemical
OhLac [1] = tested on: T1, OhLac; details: pH 5.0, 30°C, Cu2+ 5.00 mM
T1 construct: full length, 837 bp ORF, 279 aa as printed, about 31 kDa; pET28a(+) NcoI/XhoI; N-terminal His6 printed (these sites would rather give a C-terminal His6); E. coli BL21(DE3), Ni-NTA; monomer

OhLac [2] = tested on: T1, OhLac; details: pH 3.0, 50°C, Cu2+ 0.25 mM
OhLac [3] = tested on: T1, OhLac; details: pH 5.0, 40°C, Cu2+ 0.50 mM

Km (OhLac [1]): 1.13 mM
SMILES: COc1cccc(OC)c1O [2,6-DMP]

Km (OhLac [2]): 1.06 mM
SMILES: CCn1c(=NN=c2sc3cc(S(=O)(=O)O)ccc3n2CC)sc2cc(S(=O)(=O)O)ccc21 [ABTS]

Km (OhLac [3]): 523 ± 9.2 µM
SMILES: COc1ccccc1O [guaiacol]

— article PMC8521193, “A Novel Polyphenol Oxidoreductase OhLac from Ochrobactrum sp. J10 for Lignin Degradation” (Frontiers in Microbiology, 2021)
